What all share (assay type): biochemical
For assay [1], the target named is RBX1 (Homo sapiens, UniProt P62877+Q13616, Q13616:L421E/Q13616:V451E/Q13616:V452K/Q13616:Y455K). The assay can be described thus: in vitro CUL1 neddylation assay.
The target of assay [2] is T1, CUL5 (Homo sapiens, UniProt Q93034+Q9UBF6, Q93034:L407E/Q93034:L439K/Q93034:V440K).
T1 sequence (Q93034 401-780 L407E/L439K/V440K): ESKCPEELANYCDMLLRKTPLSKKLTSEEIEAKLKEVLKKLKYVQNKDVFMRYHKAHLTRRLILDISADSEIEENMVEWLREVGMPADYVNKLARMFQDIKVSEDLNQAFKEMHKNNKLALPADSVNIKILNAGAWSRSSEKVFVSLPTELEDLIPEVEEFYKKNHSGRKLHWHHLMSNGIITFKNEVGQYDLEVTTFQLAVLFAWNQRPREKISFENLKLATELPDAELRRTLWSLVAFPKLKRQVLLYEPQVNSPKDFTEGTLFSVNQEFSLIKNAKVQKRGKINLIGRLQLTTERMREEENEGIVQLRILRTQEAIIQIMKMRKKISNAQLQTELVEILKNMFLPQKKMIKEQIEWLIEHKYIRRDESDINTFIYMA
T1 sequence (Q9UBF6 2-113): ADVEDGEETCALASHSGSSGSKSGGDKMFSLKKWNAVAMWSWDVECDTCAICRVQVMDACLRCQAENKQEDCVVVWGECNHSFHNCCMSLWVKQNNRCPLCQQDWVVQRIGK
The assay can be described thus: in vitro CUL5 neddylation assay.

Assay [3] has as its target T2, SAG (Homo sapiens, UniProt Q93034+Q9UBF6, Q93034:L407E/Q93034:L439K/Q93034:V440K).
T2 sequence (Q9UBF6 2-113): T1 sequence (Q9UBF6 2-113)
T2 sequence (Q93034 401-780 L407E/L439K/V440K): T1 sequence (Q93034 401-780 L407E/L439K/V440K)
In words: in vitro CUL5 neddylation assay.

Molecules are shown by their SMILES. pIC50: −log10 of the molar value.

This note sets out measurements from paper PMC7076571 (Neoplasia (New York, N.Y.), 2020).

What is called pIC50 is the negative decadic logarithm of the IC50, by convention in mol/L. High values mean a low IC50, low ones a high IC50.

Chain of RBX1 (Q13616 411-776 L421E/V451E/V452K/Y455K): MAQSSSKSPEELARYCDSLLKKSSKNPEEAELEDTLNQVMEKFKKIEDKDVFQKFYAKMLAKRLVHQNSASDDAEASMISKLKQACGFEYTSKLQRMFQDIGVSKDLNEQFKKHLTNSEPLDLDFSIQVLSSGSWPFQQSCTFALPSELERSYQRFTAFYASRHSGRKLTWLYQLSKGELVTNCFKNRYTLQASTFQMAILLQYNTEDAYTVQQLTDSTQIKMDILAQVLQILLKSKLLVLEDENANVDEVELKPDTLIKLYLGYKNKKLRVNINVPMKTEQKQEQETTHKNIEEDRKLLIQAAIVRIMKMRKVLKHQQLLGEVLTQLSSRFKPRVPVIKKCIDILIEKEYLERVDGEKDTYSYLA
Chain of RBX1 (P62877 whole entry): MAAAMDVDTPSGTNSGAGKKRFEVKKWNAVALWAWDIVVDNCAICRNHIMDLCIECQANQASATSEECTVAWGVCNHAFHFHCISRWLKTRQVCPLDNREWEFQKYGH

For the compound `Cc1cc2c(C(C)C)c(O)c(O)c(C=O)c2c(O)c1-c1c(C)cc2c(C(C)C)c(O)c(O)c(C=O)c2c1O` [gossypol], the pIC50 in assay [1] is 5.47; in assay [2], 5.37; in assay [3] it was 5.37.
